Experimental data taken from ChEMBL document CHEMBL5625269, “Design, synthesis, and biological evaluation of novel benzo[6,7]indolo[3,4-c]isoquinolines as anticancer agents with topoisomerase I inhibition” (2024).
The source made the active and inactive calls. The calls are words filed in the database; no cut-off is given here.

test system: MCF7; assay: Growth inhibition of human MCF7 cells assessed as reduction in cell viability; assay type: functional; conditions: not given

| Structure (SMILES) | GI50 |
| --- | --- |
| COc1cc2c(cnc3c4ccc5cc(O)ccc5c4n(CCCN4CCOCC4)c23)cc1O | < 10 nM |
| COc1cc2c(cnc3c4ccc5cc(O)ccc5c4n(CCN(C)C)c23)cc1O | 13 nM |
| COc1cc2c(cnc3c4ccc5cc(O)ccc5c4n(CCCn4ccnc4)c23)cc1O | 40 nM |
| COc1cc2c(cc1O)c[n+]([O-])c1c3ccc4cc(O)ccc4c3n(C)c21 | 66 nM |
| COc1cc2c(cnc3c4ccc5cc(O)ccc5c4n(CCCN4CCC(N5CCCCC5)CC4)c23)cc1O | 263 nM |
| COc1cc2c(cnc3c4ccc5cc(O)ccc5c4n(C)c23)cc1O | 437 nM |
| COc1cc2c(ccc3c4c(=O)oc5cc(O)c(OC)cc5c4n(C)c23)cc1O | 9.6 nM |
| COc1cc2c(cnc3c4ccc5cc(O)ccc5c4n(CCCCl)c23)cc1O | 105 nM |

test system: ACHN; assay: Growth inhibition of human ACHN cells assessed as reduction in cell viability; assay type: functional; conditions: not given

| Structure (SMILES) | GI50 |
| --- | --- |
| COc1cc2c(cnc3c4ccc5cc(O)ccc5c4n(CCCN4CCOCC4)c23)cc1O | < 10 nM |
| COc1cc2c(cnc3c4ccc5cc(O)ccc5c4n(CCN(C)C)c23)cc1O | 20 nM |
| COc1cc2c(cnc3c4ccc5cc(O)ccc5c4n(CCCn4ccnc4)c23)cc1O | 331 nM |
| COc1cc2c(cc1O)c[n+]([O-])c1c3ccc4cc(O)ccc4c3n(C)c21 | 37 nM |
| COc1cc2c(cnc3c4ccc5cc(O)ccc5c4n(CCCN4CCC(N5CCCCC5)CC4)c23)cc1O | 1100 nM |
| COc1cc2c(cnc3c4ccc5cc(O)ccc5c4n(C)c23)cc1O | 257 nM |
| COc1cc2c(ccc3c4c(=O)oc5cc(O)c(OC)cc5c4n(C)c23)cc1O | < 1 nM |
| COc1cc2c(cnc3c4ccc5cc(O)ccc5c4n(CCCCl)c23)cc1O | 32 nM |

test system: SK-OV-3; assay: Growth inhibition of human SK-OV-3 cells assessed as reduction in cell viability; assay type: functional; conditions: not given

| Structure (SMILES) | GI50 |
| --- | --- |
| COc1cc2c(cnc3c4ccc5cc(O)ccc5c4n(CCCN4CCOCC4)c23)cc1O | 18 nM |
| COc1cc2c(cnc3c4ccc5cc(O)ccc5c4n(CCN(C)C)c23)cc1O | 380 nM |
| COc1cc2c(cnc3c4ccc5cc(O)ccc5c4n(CCCn4ccnc4)c23)cc1O | 9550 nM |
| COc1cc2c(cc1O)c[n+]([O-])c1c3ccc4cc(O)ccc4c3n(C)c21 | 1440 nM |
| COc1cc2c(cnc3c4ccc5cc(O)ccc5c4n(CCCN4CCC(N5CCCCC5)CC4)c23)cc1O | 1820 nM |
| COc1cc2c(cnc3c4ccc5cc(O)ccc5c4n(C)c23)cc1O | 759 nM |
| COc1cc2c(ccc3c4c(=O)oc5cc(O)c(OC)cc5c4n(C)c23)cc1O | 9.4 nM |
| COc1cc2c(cnc3c4ccc5cc(O)ccc5c4n(CCCCl)c23)cc1O | 537 nM |

test system: A549; assay: Growth inhibition of human A549 cells assessed as reduction in cell viability; assay type: functional; conditions: not given

| Structure (SMILES) | GI50 |
| --- | --- |
| COc1cc2c(cnc3c4ccc5cc(O)ccc5c4n(CCCN4CCOCC4)c23)cc1O | 49 nM |
| COc1cc2c(cnc3c4ccc5cc(O)ccc5c4n(CCN(C)C)c23)cc1O | 380 nM |
| COc1cc2c(cnc3c4ccc5cc(O)ccc5c4n(CCCn4ccnc4)c23)cc1O | 15800 nM |
| COc1cc2c(cc1O)c[n+]([O-])c1c3ccc4cc(O)ccc4c3n(C)c21 | 3090 nM |
| COc1cc2c(cnc3c4ccc5cc(O)ccc5c4n(CCCN4CCC(N5CCCCC5)CC4)c23)cc1O | 1550 nM |
| COc1cc2c(cnc3c4ccc5cc(O)ccc5c4n(C)c23)cc1O | 631 nM |
| COc1cc2c(ccc3c4c(=O)oc5cc(O)c(OC)cc5c4n(C)c23)cc1O | 1.8 nM |
| COc1cc2c(cnc3c4ccc5cc(O)ccc5c4n(CCCCl)c23)cc1O | 447 nM |

target: T1, DNA topoisomerase 1 (Homo sapiens) (UniProt P11387); assay: Inhibition of human DNA topoisomerase 1 assessed as reduction in pBR322 DNA relaxation at 20 to 100 uM in presence of ethidium bromide by agarose gel electrophoresis method; conditions: dose 20-100 µM
T1 sequence (whole entry): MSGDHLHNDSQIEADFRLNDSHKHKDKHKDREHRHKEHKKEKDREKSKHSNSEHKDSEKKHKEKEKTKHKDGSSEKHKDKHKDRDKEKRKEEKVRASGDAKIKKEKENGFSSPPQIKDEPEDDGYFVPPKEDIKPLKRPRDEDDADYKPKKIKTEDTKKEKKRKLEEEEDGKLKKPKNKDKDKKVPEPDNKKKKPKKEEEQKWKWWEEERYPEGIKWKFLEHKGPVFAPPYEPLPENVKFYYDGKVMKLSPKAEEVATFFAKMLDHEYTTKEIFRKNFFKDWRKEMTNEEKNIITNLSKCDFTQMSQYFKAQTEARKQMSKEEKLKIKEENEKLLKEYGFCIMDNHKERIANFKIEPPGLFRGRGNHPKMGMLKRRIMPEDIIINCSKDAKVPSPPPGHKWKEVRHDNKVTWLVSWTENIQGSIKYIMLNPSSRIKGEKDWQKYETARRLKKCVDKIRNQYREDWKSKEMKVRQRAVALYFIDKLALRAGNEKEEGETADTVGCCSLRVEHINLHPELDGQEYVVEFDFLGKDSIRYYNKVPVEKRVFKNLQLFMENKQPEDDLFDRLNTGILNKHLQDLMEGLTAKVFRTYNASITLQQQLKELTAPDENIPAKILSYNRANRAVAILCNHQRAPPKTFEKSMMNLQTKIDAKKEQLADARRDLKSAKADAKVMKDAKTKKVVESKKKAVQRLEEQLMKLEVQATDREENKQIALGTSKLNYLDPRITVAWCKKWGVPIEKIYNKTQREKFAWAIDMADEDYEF

| Structure (SMILES) | inhibition |
| --- | --- |
| COc1cc2c(cnc3c4ccc5cc(O)ccc5c4n(CCCN4CCOCC4)c23)cc1O | Active |
| COc1cc2c(cnc3c4ccc5cc(O)ccc5c4n(CCN(C)C)c23)cc1O | Active |
| COc1cc2c(cnc3c4ccc5cc(O)ccc5c4n(CCCn4ccnc4)c23)cc1O | inactive |
| COc1cc2c(cc1O)c[n+]([O-])c1c3ccc4cc(O)ccc4c3n(C)c21 | Active |

test system: DU-145; assay: Growth inhibition of human DU-145 cells assessed as reduction in cell viability; assay type: functional; conditions: not given

| Structure (SMILES) | GI50 |
| --- | --- |
| COc1cc2c(cnc3c4ccc5cc(O)ccc5c4n(CCCN4CCOCC4)c23)cc1O | < 10 nM |
| COc1cc2c(cnc3c4ccc5cc(O)ccc5c4n(CCN(C)C)c23)cc1O | < 10 nM |
| COc1cc2c(cnc3c4ccc5cc(O)ccc5c4n(CCCn4ccnc4)c23)cc1O | 141 nM |
| COc1cc2c(cc1O)c[n+]([O-])c1c3ccc4cc(O)ccc4c3n(C)c21 | 62 nM |
| COc1cc2c(cnc3c4ccc5cc(O)ccc5c4n(CCCN4CCC(N5CCCCC5)CC4)c23)cc1O | 759 nM |
| COc1cc2c(cnc3c4ccc5cc(O)ccc5c4n(C)c23)cc1O | 282 nM |
| COc1cc2c(ccc3c4c(=O)oc5cc(O)c(OC)cc5c4n(C)c23)cc1O | 2.5 nM |
| COc1cc2c(cnc3c4ccc5cc(O)ccc5c4n(CCCCl)c23)cc1O | 32 nM |

test system: HCT-116; assay: Growth inhibition of human HCT-116 cells assessed as reduction in cell viability; assay type: functional; conditions: not given

| Structure (SMILES) | GI50 |
| --- | --- |
| COc1cc2c(cnc3c4ccc5cc(O)ccc5c4n(CCCN4CCOCC4)c23)cc1O | < 10 nM |
| COc1cc2c(cnc3c4ccc5cc(O)ccc5c4n(CCN(C)C)c23)cc1O | 65 nM |
| COc1cc2c(cnc3c4ccc5cc(O)ccc5c4n(CCCn4ccnc4)c23)cc1O | 324 nM |
| COc1cc2c(cc1O)c[n+]([O-])c1c3ccc4cc(O)ccc4c3n(C)c21 | 209 nM |
| COc1cc2c(cnc3c4ccc5cc(O)ccc5c4n(CCCN4CCC(N5CCCCC5)CC4)c23)cc1O | 309 nM |
| COc1cc2c(cnc3c4ccc5cc(O)ccc5c4n(C)c23)cc1O | 200 nM |
| COc1cc2c(ccc3c4c(=O)oc5cc(O)c(OC)cc5c4n(C)c23)cc1O | 8.8 nM |
| COc1cc2c(cnc3c4ccc5cc(O)ccc5c4n(CCCCl)c23)cc1O | 115 nM |

test system: MKN-28; assay: Growth inhibition of human MKN-28 cells assessed as reduction in cell viability; assay type: functional; conditions: not given

| Structure (SMILES) | GI50 |
| --- | --- |
| COc1cc2c(cnc3c4ccc5cc(O)ccc5c4n(CCCN4CCOCC4)c23)cc1O | 19 nM |
| COc1cc2c(cnc3c4ccc5cc(O)ccc5c4n(CCN(C)C)c23)cc1O | 912 nM |
| COc1cc2c(cnc3c4ccc5cc(O)ccc5c4n(CCCn4ccnc4)c23)cc1O | 1950 nM |
| COc1cc2c(cc1O)c[n+]([O-])c1c3ccc4cc(O)ccc4c3n(C)c21 | 3550 nM |
| COc1cc2c(cnc3c4ccc5cc(O)ccc5c4n(CCCN4CCC(N5CCCCC5)CC4)c23)cc1O | 562 nM |
| COc1cc2c(cnc3c4ccc5cc(O)ccc5c4n(C)c23)cc1O | 437 nM |
| COc1cc2c(ccc3c4c(=O)oc5cc(O)c(OC)cc5c4n(C)c23)cc1O | 33 nM |
| COc1cc2c(cnc3c4ccc5cc(O)ccc5c4n(CCCCl)c23)cc1O | 316 nM |

test system: LOX IMVI; assay: Growth inhibition of human LOX IMVI cells assessed as reduction in cell viability; assay type: functional; conditions: not given

| Structure (SMILES) | GI50 |
| --- | --- |
| COc1cc2c(cnc3c4ccc5cc(O)ccc5c4n(CCCN4CCOCC4)c23)cc1O | < 10 nM |
| COc1cc2c(cnc3c4ccc5cc(O)ccc5c4n(CCN(C)C)c23)cc1O | < 10 nM |
| COc1cc2c(cnc3c4ccc5cc(O)ccc5c4n(CCCn4ccnc4)c23)cc1O | 44 nM |
| COc1cc2c(cc1O)c[n+]([O-])c1c3ccc4cc(O)ccc4c3n(C)c21 | 50 nM |
| COc1cc2c(cnc3c4ccc5cc(O)ccc5c4n(CCCN4CCC(N5CCCCC5)CC4)c23)cc1O | 363 nM |
| COc1cc2c(cnc3c4ccc5cc(O)ccc5c4n(C)c23)cc1O | 178 nM |
| COc1cc2c(ccc3c4c(=O)oc5cc(O)c(OC)cc5c4n(C)c23)cc1O | 2.6 nM |
| COc1cc2c(cnc3c4ccc5cc(O)ccc5c4n(CCCCl)c23)cc1O | 25 nM |

target: T1, DNA topoisomerase 1 (Homo sapiens); assay: Inhibition of human DNA topoisomerase 1 assessed as reduction in pBR322 DNA relaxation at 20 to 100 uM by agarose gel electrophoresis method; conditions: dose 20-100 µM

| Structure (SMILES) | inhibition |
| --- | --- |
| COc1cc2c(cnc3c4ccc5cc(O)ccc5c4n(CCCN4CCOCC4)c23)cc1O | Active |
| COc1cc2c(cnc3c4ccc5cc(O)ccc5c4n(CCN(C)C)c23)cc1O | Active |
| COc1cc2c(cnc3c4ccc5cc(O)ccc5c4n(CCCN4CCC(N5CCCCC5)CC4)c23)cc1O | Active |

test system: U-251; assay: Growth inhibition of human U-251 cells assessed as reduction in cell viability; assay type: functional; conditions: not given

| Structure (SMILES) | GI50 |
| --- | --- |
| COc1cc2c(cnc3c4ccc5cc(O)ccc5c4n(CCCN4CCOCC4)c23)cc1O | < 10 nM |
| COc1cc2c(cnc3c4ccc5cc(O)ccc5c4n(CCN(C)C)c23)cc1O | < 10 nM |
| COc1cc2c(cnc3c4ccc5cc(O)ccc5c4n(CCCn4ccnc4)c23)cc1O | 38 nM |
| COc1cc2c(cc1O)c[n+]([O-])c1c3ccc4cc(O)ccc4c3n(C)c21 | 145 nM |
| COc1cc2c(cnc3c4ccc5cc(O)ccc5c4n(CCCN4CCC(N5CCCCC5)CC4)c23)cc1O | 708 nM |
| COc1cc2c(cnc3c4ccc5cc(O)ccc5c4n(C)c23)cc1O | 123 nM |
| COc1cc2c(ccc3c4c(=O)oc5cc(O)c(OC)cc5c4n(C)c23)cc1O | 1.3 nM |
| COc1cc2c(cnc3c4ccc5cc(O)ccc5c4n(CCCCl)c23)cc1O | 26 nM |
